From PubChem BioAssay (NCI)
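Each compound was tested at five concentrations against cells in 96-well plates for 48 hours. GI50: concentration for 50% inhibition of growth. The concentration for full growth arrest is given as TGI.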

Legend:
Test in all cases: NCI anticancer screen, dose series, 48 h
786-0 renal = tested on: 786-0 renal
A498 renal = tested on: A498 renal
A549 NSCLC = tested on: A549 NSCLC
ACHN renal = tested on: ACHN renal
BT-549 breast = tested on: BT-549 breast
CAKI-1 renal = tested on: CAKI-1 renal
CCRF-CEM leukemia = tested on: CCRF-CEM leukemia
COLO 205 colon = tested on: COLO 205 colon
DU-145 prostate = tested on: DU-145 prostate
EKVX NSCLC = tested on: EKVX NSCLC
HCC-2998 colon = tested on: HCC-2998 colon
HCT-116 colon = tested on: HCT-116 colon
HCT-15 colon = tested on: HCT-15 colon
HL-60(TB) leukemia = tested on: HL-60(TB) leukemia
HOP-62 NSCLC = tested on: HOP-62 NSCLC
HOP-92 NSCLC = tested on: HOP-92 NSCLC
HS 578T breast = tested on: HS 578T breast
HT29 colon = tested on: HT29 colon
IGROV1 ovarian = tested on: IGROV1 ovarian
K-562 leukemia = tested on: K-562 leukemia
LOX IMVI melanoma = tested on: LOX IMVI melanoma
M14 melanoma = tested on: M14 melanoma
MALME-3M melanoma = tested on: MALME-3M melanoma
MCF7 breast = tested on: MCF7 breast
MDA-MB-231 breast = tested on: MDA-MB-231 breast
MDA-MB-435 = tested on: MDA-MB-435
MOLT-4 leukemia = tested on: MOLT-4 leukemia
NCI-H226 lung = tested on: NCI-H226 lung
NCI-H23 lung = tested on: NCI-H23 lung
NCI-H460 lung = tested on: NCI-H460 lung
NCI-H522 lung = tested on: NCI-H522 lung
NCI/ADR-RES ovarian = tested on: NCI/ADR-RES ovarian
OVCAR-3 ovarian = tested on: OVCAR-3 ovarian
OVCAR-4 ovarian = tested on: OVCAR-4 ovarian
OVCAR-5 ovarian = tested on: OVCAR-5 ovarian
OVCAR-8 ovarian = tested on: OVCAR-8 ovarian
PC-3 prostate = tested on: PC-3 prostate
RPMI-8226 leukemia = tested on: RPMI-8226 leukemia
RXF 393 renal = tested on: RXF 393 renal
SF-268 CNS = tested on: SF-268 CNS
SF-295 CNS = tested on: SF-295 CNS
SF-539 CNS = tested on: SF-539 CNS
SK-MEL-2 melanoma = tested on: SK-MEL-2 melanoma
SK-MEL-28 melanoma = tested on: SK-MEL-28 melanoma
SK-MEL-5 melanoma = tested on: SK-MEL-5 melanoma
SK-OV-3 ovarian = tested on: SK-OV-3 ovarian
SN12C renal = tested on: SN12C renal
SNB-19 CNS = tested on: SNB-19 CNS
SNB-75 CNS = tested on: SNB-75 CNS
SR leukemia = tested on: SR leukemia
SW-620 colon = tested on: SW-620 colon
TK-10 renal = tested on: TK-10 renal
U251 CNS = tested on: U251 CNS
UACC-257 melanoma = tested on: UACC-257 melanoma
UACC-62 melanoma = tested on: UACC-62 melanoma
UO-31 renal = tested on: UO-31 renal

## CC1OC(O[C@@H]2[C@H](O)C(CO)OC(O[C@H]3COC(O[C@H]4CC[C@]5(C)[C@H]6CC[C@]78OC[C@@]9(CCC(C)(C)C[C@H]97)[C@H](O)C[C@@]8(C)[C@]6(C)CC[C@H]5C4(C)C)[C@@H](OC4OC(CO)[C@@H](O)[C@@H](O)[C@@H]4O)[C@@H]3O)[C@H]2OC2OC[C@@H](O)[C@@H](O)[C@@H]2O)[C@@H](O)[C@@H](O)[C@H]1O (some centres not stated)
786-0 renal
  GI50: 2.8 µM
  TGI: 5.16 µM
A498 renal
  GI50: 2.44 µM
  TGI: 4.59 µM
A549 NSCLC
  GI50: 3.07 µM
  TGI: 5.91 µM
ACHN renal
  GI50: 0.621 µM
  TGI: 2.57 µM
BT-549 breast
  GI50: 2.36 µM
  TGI: 4.55 µM
CAKI-1 renal
  GI50: 2.39 µM
  TGI: 4.51 µM
CCRF-CEM leukemia
  GI50: 0.698 µM
  TGI: 3.26 µM
COLO 205 colon
  GI50: 2.29 µM
  TGI: 4.5 µM
DU-145 prostate
  GI50: 2.47 µM
  TGI: 4.92 µM
EKVX NSCLC
  GI50: 3.04 µM
  TGI: 5.48 µM
HCC-2998 colon
  GI50: 1.56 µM
  TGI: 3.39 µM
HCT-116 colon
  GI50: 1.78 µM
  TGI: 3.68 µM
HCT-15 colon
  GI50: 2.52 µM
  TGI: 4.78 µM
HL-60(TB) leukemia
  GI50: 0.345 µM
  TGI: 0.7 µM
HOP-62 NSCLC
  GI50: 2.57 µM
  TGI: 4.94 µM
HOP-92 NSCLC
  GI50: 1.85 µM
  TGI: 3.81 µM
HS 578T breast
  GI50: 2.45 µM
  TGI: 5.5 µM
HT29 colon
  GI50: 2.8 µM
  TGI: 5.23 µM
IGROV1 ovarian
  GI50: 2.31 µM
  TGI: 4.65 µM
K-562 leukemia
  GI50: 2.95 µM
  TGI: 5.98 µM
LOX IMVI melanoma
  GI50: 2.06 µM
  TGI: 4.11 µM
M14 melanoma
  GI50: 1.44 µM
  TGI: 3.35 µM
MALME-3M melanoma
  GI50: 2.58 µM
  TGI: 4.96 µM
MCF7 breast
  GI50: 2.23 µM
  TGI: 4.83 µM
MDA-MB-231 breast
  GI50: 2.07 µM
  TGI: 4.18 µM
MDA-MB-435
  GI50: 2.16 µM
  TGI: 4.22 µM
MOLT-4 leukemia
  GI50: 0.535 µM
  TGI: 3.27 µM
NCI-H226 lung
  GI50: 2.73 µM
  TGI: 5.73 µM
NCI-H23 lung
  GI50: 1.91 µM
  TGI: 4.14 µM
NCI-H460 lung
  GI50: 2.62 µM
  TGI: 5.35 µM
NCI-H522 lung
  GI50: 2.45 µM
  TGI: 4.69 µM
NCI/ADR-RES ovarian
  GI50: 2.64 µM
  TGI: 5.4 µM
OVCAR-3 ovarian
  GI50: 2.75 µM
  TGI: 5.04 µM
OVCAR-4 ovarian
  GI50: 2.25 µM
  TGI: 4.82 µM
OVCAR-5 ovarian
  GI50: 2.52 µM
  TGI: 4.92 µM
OVCAR-8 ovarian
  GI50: 3.5 µM
  TGI: 6.83 µM
PC-3 prostate
  GI50: 2.56 µM
  TGI: 4.77 µM
RPMI-8226 leukemia
  GI50: 1.93 µM
  TGI: 4.68 µM
RXF 393 renal
  GI50: 0.566 µM
  TGI: 2.85 µM
SF-268 CNS
  GI50: 2.55 µM
  TGI: 5.13 µM
SF-295 CNS
  GI50: 2.58 µM
  TGI: 4.76 µM
SF-539 CNS
  GI50: 1.55 µM
  TGI: 3.51 µM
SK-MEL-2 melanoma
  GI50: 2.32 µM
  TGI: 4.57 µM
SK-MEL-28 melanoma
  GI50: 0.809 µM
  TGI: 2.77 µM
SK-MEL-5 melanoma
  GI50: 2.27 µM
  TGI: 4.37 µM
SK-OV-3 ovarian
  GI50: 2.41 µM
  TGI: 4.53 µM
SN12C renal
  GI50: 1.68 µM
  TGI: 3.56 µM
SNB-19 CNS
  GI50: 2.14 µM
  TGI: 4.43 µM
SNB-75 CNS
  GI50: 0.256 µM
  TGI: 1.41 µM
SR leukemia
  GI50: 0.0169 µM
  TGI: 1.52 µM
SW-620 colon
  GI50: 2.55 µM
  TGI: 5.12 µM
TK-10 renal
  GI50: 3.59 µM
  TGI: 5.97 µM
U251 CNS
  GI50: 2.69 µM
  TGI: 5.13 µM
UACC-257 melanoma
  GI50: 2.85 µM
  TGI: 5.17 µM
UACC-62 melanoma
  GI50: 2.27 µM
  TGI: 4.34 µM
UO-31 renal
  GI50: 0.323 µM
  TGI: 1.14 µM
